Key:
granulation tissue = assay: Subcutaneous Ivalon sponge implantation, histological analysis of granulation tissue formation; type: in vivo, Sprague-Dawley rats; conditions: for Sponge: score on the 0-4 scale, tested in a similar manner to collagen/sucrose octasulfate, potassium salts
Description: By means of subcutaneous implantation of Ivalon sponges the phase of granulation tissue formation in the repair process can be evaluated. Following a vigorous cleanup procedure the sponge material evokes only minimal inflammatory response. Sterile sponges prepared as set forth in Example 12 were injected with a 50 µl suspension of collagen/sucrose octasulfate suspension prepared as in Example 12. […] The sponges were surgically implanted into 350-500 g, male Sprague-Dawley rats. Before the implantation procedure three rats were anesthetized and their dorsal surfaces shaved and wiped with Predodyne (West Chemical Products, Lynbrook, N.Y.). Six 6 mm incisions were cut in groups of two (one on each side of the vertebral column rostrally, centrally and caudally), spaced equi-distant from each other between the pectoral and pelvic girdles on the dorsal surface. At each incision a pocket was made between the panniculus carnosus and the dermis and two sponges inserted into it, one rostrally and the other caudally; a total of 12 sponges were thus implanted in each animal. The position of each test preparation was alternated between the rostral, central and caudal positions to control the variation due to anatomical location. The incisions were closed with 11-mm Michel wound clips (Propper, Long Island City, N.Y.). Seven days following implantation the animals were sacrificed and the sponges surgically removed with their adhered connective tissue capsules. Controls, sponges injected with either PBS or collagen only were treated in a similar manner. In all, approximately 120 sponges per group were used in the study and randomly selected for biochemical and histologic analysis. The sponges were fixed in formalin and embedded in either plastic or Paraplast following dehydration. Sections were stained with hemotocylin and eosin, trichrome, silver or PAS. […] Mesenchymal cell infiltration was also scored on a predetermined scale from 0-4. […] Although the whole sponge area was used for analysis we noted that the most striking differences between the various treatments were evident in the center of the sponge. Therefore, the histologic appearance of the central zone was selected for presentation.

rabbit corneas = assay: Rabbit cornea assay for angiogenesis; type: in vivo; conditions: grade on scale 0-4+ in rabbit cornea; potassium salts
Description: This may offer an explanation for the dense vascular bed that characterized the granulation tissue in the in-vivo experiments. Sucrose octasulate at concentrations of 0.1 to 100 µg/ml was encapsulated in Hydron and implanted in rabbit corneas. The method used was that described in Surgery 96:48-54, 1984. The […] solution (sucrose octasulfate or PBS) was mixed with an equal volume of Hydron and allowed to polymerize under reduced pressure. […] Eyes were evaluated at days 1 through 14 post-implantation for gross inflammation and, as described by Hunt, et al, in Surgery 96:48-54, 1984, for angiogenesis. Corneal neovascularization was graded on a scale of 0-4+ (integers only being assigned). Zero denotes a normal eye with no ingrowth on limbal vessels into the corneal stroma; 1+, up to 1 mm of capillary ingrowth in a localized arc adjacent to the injection site; 2+, […] ingrowth; 3+, 2-3 mm ingrowth; and 4+, 3 mm or greater ingrowth in a wide arc along the limbal edge toward the injection site. […] To ascertain that the observed angiogenesis was not secondary to an inflammatory process some eyes with a positive response were removed and stained with H&E and a nonspecific esterase stain as early as two days after implantation.

fibroblasts = assay: Cell migration assay (Boyden chamber); type: cell-based; set-up: Chemokinesis: scale not given here; conditions: score, Boyden chamber, scale not defined; potassium salts
Description: Stimulation of directed movement of fibroblasts was assayed as described by Banda M.J., Knighton D.R., Hunt T.K., Werb A., Isolation of a nonmitogenic angiogenesis factor from wound fluid, Proc. Natl. Acad. Sci. 79:7773-7777, 1982. Briefly, solutions of sucrose octasulfate in PBS in concentrations resulting in final concentrations ranging from 10 -² to 10 -⁷ g/ml diluted to a final volume of 300 µℓ in DMEM supplemented with 10 percent rabbit platelet-poor plasma serum were placed in the bottom of Boyden blind-well chambers. Polylysine-coated, 5 µ -pore diameter, polycarbonate filters (Nucleopore) were placed over the test solution and 1.75-3.0 x 10⁶ fibroblasts suspended in DMEM added to the top compartment. The chambers were incubated for two and a half hours at 37 °C,
At the end of incubation of the top filter was fixed, stained and evaluated by counting the number of cells that had migrated to the bottom side of the filter. For each experiment five random fields per filter and at least 15 filters per each concentration of sucrose octasulfate were conducted. […]

| Compound | Sponge (granulation tissue) | Angiogenesis (rabbit corneas) | Chemokinesis (fibroblasts) | histologic response in sponge (granulation tissue; similar tests with sucralfate) |
| --- | --- | --- | --- | --- |
| O=S(=O)([O-])OC[C@H]1O[C@@H](O[C@H]2[C@H](OS(=O)(=O)[O-])[C@@H](OS(=O)(=O)[O-])[C@H](OS(=O)(=O)[O-])O[C@@H]2COS(=O)(=O)[O-])[C@H](OS(=O)(=O)[O-])[C@@H](OS(=O)(=O)[O-])[C@H]1OS(=O)(=O)[O-].[K+].[K+].[K+].[K+].[K+].[K+].[K+].[K+] [Beta-Lactose Octasulfate, potassium β -lactose octasulfate] | 3.0 | 3.0 | 3.0 | – |
| O=C[C@H](OS(=O)(=O)[O-])[C@@H](OS(=O)(=O)[O-])[C@H](OS(=O)(=O)[O-])[C@@H](COS(=O)(=O)[O-])OS(=O)(=O)[O-].[K+].[K+].[K+].[K+].[K+] [Glucose Pentasulfate, potassium glucose pentasulfate] | 2.5 | 2.0 | 3.0 | – |
| O=C[C@H](O)[C@@H](O)[C@H](O)[C@H](O)COS(=O)(=O)[O-].[K+] [Glucose-6-Sulfate, potassium D-glucose-6-sulfate, reference compound] | 1 | 1 | 1 | – |
| O=S(=O)(O)OC[C@H]1O[C@@H](OS(=O)(=O)O)[C@H](OS(=O)(=O)O)[C@@H](OS(=O)(=O)O)[C@@H]1O[C@H]1O[C@H](COS(=O)(=O)O)[C@@H](OS(=O)(=O)O)[C@H](OS(=O)(=O)O)[C@H]1OS(=O)(=O)O [Maltose Octasulfate, potassium maltose octasulfate] | 3.0 | 3.0 | 3.0 | – |
| O=C[C@@H](OS(=O)(=O)[O-])[C@@H](OS(=O)(=O)[O-])[C@H](OS(=O)(=O)[O-])[C@@H](COS(=O)(=O)[O-])OS(=O)(=O)[O-].[K+].[K+].[K+].[K+].[K+] [Mannose Pentasulfate, potassium mannose pentasulfate] | 3.0 | 3.0 | 4.0 | – |
| O=S(=O)([O-])OC[C@H]1O[C@H](O[C@H]2O[C@H](COS(=O)(=O)[O-])[C@@H](OS(=O)(=O)[O-])[C@H](OS(=O)(=O)[O-])[C@H]2OS(=O)(=O)[O-])[C@H](OS(=O)(=O)[O-])[C@@H](OS(=O)(=O)[O-])[C@@H]1OS(=O)(=O)[O-].[K+].[K+].[K+].[K+].[K+].[K+].[K+].[K+] [Trehalose Octasulfate, potassium trehalose octasulfate] | 3.0 | 3.0 | 2.0 | – |
| potassium melezitose persulfate [Melezitose Undecasulfate] | 1 | 1 | 1 | – |
| potassium stachyose persulfate [Stachyose Tetradecasulfate] | 2.5 | 2.5 | 2.0 | – |
| potassium sucrose trisulfate | 2.5 | 2.0 | 3.0 | – |
| sucralfate [reference compound] | – | – | – | strong inflammatory response with no neovascularization or fibroblast migration |
